“And” between values parts separate entries of the source, which are not always exact repeats. Identical values can stand only once. Like-named read-outs stand apart in the source and are kept apart here.
How the values were obtained:
CDK12–cyclin K and DDB1 = target: T1, CDK12–cyclin K and DDB1 (Homo sapiens, UniProt Q16531+Q9NYV4, K965R); experiment: TR-FRET ternary complex formation assay (compound titration); type: binding
T1 construct: His6–CDK12 (a.a. 713–1,052); full-length or beta-propeller B domain deletion (ΔBPB: a.a. 396–705 deleted) constructs of His6–DDB1ΔBPB, StrepII–Avi–DDB1, or His6–Spy–DDB1; made in house; host or cells: Trichoplusia ni High Five insect cells (baculovirus)
In short: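 TR-FRET ratio 520/490 nm; 70 μs delay before read to suppress background.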

[1] = tested on: cyclin K–eGFP degradation reporter; experiment: Cyclin K reporter stability analysis (dual-color cyclin K–eGFP reporter); type: cell-based, human; conditions: for reporter assay signal (normalized): replicates
In short: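 Readout was the eGFP-to-mCherry geometric-mean ratio by flow cytometry, normalized to three DMSO controls, after 5 h drug exposure. Cells used were HEK293T–Cas9 expressing the dual-colour cyclin K–eGFP degradation reporter.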

CDK2–cyclin A = target: T2, CDK2–cyclin A (Homo sapiens, UniProt P24941); experiment: Lanthascreen kinase binding assay, CDK2
T2 construct: purchased Thermo Fisher
Protocol: Lanthascreen experiments were performed using commercially available reagents (Thermo Fisher) and according to the manufacturer’s instructions.

T1 sequence (Q9NYV4 713-1052 K965R): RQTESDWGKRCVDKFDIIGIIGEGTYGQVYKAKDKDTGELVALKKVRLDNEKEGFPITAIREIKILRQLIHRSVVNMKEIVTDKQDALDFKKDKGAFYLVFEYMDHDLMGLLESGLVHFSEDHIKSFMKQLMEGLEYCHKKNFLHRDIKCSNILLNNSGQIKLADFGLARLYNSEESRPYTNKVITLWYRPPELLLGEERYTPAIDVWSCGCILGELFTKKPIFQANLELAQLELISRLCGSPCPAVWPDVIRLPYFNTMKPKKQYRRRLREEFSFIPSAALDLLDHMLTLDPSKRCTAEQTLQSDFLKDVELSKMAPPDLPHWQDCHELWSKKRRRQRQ
T1 sequence (O75909 1-267 partner): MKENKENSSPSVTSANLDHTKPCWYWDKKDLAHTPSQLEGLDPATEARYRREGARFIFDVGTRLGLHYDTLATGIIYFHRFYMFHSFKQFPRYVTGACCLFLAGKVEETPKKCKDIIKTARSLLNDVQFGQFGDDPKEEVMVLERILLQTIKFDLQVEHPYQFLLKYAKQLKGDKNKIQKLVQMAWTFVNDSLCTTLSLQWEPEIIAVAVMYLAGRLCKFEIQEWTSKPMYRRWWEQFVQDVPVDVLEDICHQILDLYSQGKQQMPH
T1 sequence (Q16531 whole entry): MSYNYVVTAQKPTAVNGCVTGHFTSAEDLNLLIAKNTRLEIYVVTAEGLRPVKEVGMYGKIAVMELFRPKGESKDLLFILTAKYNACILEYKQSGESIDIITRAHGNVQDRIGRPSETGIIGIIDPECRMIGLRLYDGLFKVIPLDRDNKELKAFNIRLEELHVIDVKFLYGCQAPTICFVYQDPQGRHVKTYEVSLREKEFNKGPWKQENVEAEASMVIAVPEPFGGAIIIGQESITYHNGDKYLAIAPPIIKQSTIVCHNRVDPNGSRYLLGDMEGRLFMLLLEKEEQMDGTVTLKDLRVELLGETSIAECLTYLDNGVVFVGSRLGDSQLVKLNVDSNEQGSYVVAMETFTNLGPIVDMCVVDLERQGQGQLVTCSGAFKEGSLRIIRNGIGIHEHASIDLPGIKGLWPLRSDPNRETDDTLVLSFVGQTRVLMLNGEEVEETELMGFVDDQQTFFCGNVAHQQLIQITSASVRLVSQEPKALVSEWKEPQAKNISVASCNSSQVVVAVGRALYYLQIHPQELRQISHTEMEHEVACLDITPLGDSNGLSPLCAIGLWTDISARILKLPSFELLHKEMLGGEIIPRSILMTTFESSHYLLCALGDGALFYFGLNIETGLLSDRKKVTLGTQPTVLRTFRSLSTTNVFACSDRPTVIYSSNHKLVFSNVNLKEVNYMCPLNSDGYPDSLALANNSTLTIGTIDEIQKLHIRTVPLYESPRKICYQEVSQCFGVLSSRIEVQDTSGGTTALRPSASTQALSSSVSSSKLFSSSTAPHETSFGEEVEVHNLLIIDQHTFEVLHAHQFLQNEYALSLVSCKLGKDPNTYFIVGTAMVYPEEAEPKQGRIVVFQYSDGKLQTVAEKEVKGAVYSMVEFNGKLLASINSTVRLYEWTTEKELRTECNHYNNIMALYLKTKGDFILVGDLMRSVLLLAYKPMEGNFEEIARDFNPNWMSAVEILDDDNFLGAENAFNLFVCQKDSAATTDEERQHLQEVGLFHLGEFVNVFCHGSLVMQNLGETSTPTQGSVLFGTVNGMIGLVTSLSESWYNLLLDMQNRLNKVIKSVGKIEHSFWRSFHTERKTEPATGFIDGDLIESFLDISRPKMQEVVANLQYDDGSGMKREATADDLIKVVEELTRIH

CC(C)c1nn(-c2c(Cl)cccc2Cl)c2nc(Cc3ccc(OCCO)cc3)[nH]c(=O)c12 [compound 21195]
TR-FRET signal (CDK12–cyclin K and DDB1; compound concentration 0.468 nM): 0.2628 and 0.2699 and 0.216 and 0.239 and 0.2342 and 0.2245 | TR-FRET signal (CDK12–cyclin K and DDB1; compound concentration 2.16 nM): 0.3464 and 0.3831 and 0.355 and 0.3843 and 0.3684 and 0.3664 | TR-FRET signal (CDK12–cyclin K and DDB1; compound concentration 3.6 nM): 0.5968 and 0.6945 and 0.6556 and 0.7072 and 0.6869 and 0.6829 | TR-FRET signal (CDK12–cyclin K and DDB1; compound concentration 7.92001 nM): 1.121 and 1.282 and 1.315 and 1.383 and 1.34 and 1.348 | TR-FRET signal (CDK12–cyclin K and DDB1; compound concentration 15.84 nM): 1.693 and 2.27 and 2.427 and 2.5504 and 2.497 | TR-FRET signal (CDK12–cyclin K and DDB1; compound concentration 30.96 nM): 2.9489 and 3.238 and 3.271 and 3.348 and 3.319 and 3.3062 | TR-FRET signal (CDK12–cyclin K and DDB1; compound concentration 62.6401 nM): 3.288 and 3.494 and 3.577 and 3.452 and 3.519 and 3.526 | TR-FRET signal (CDK12–cyclin K and DDB1; compound concentration 125.28 nM): 3.346 and 3.624 and 3.589 and 3.472 and 3.591 and 3.561 | TR-FRET signal (CDK12–cyclin K and DDB1; compound concentration 244.8 nM): 3.392 and 3.7057 and 3.68 and 3.58 and 3.638 and 3.662 | TR-FRET signal (CDK12–cyclin K and DDB1; compound concentration 993.601 nM): 3.425 and 3.678 and 3.687 and 3.61 and 3.695 and 3.669 | TR-FRET signal (CDK12–cyclin K and DDB1; compound concentration 2001.6 nM): 3.544 and 3.666 and 3.468 and 3.558 and 3.691 and 3.74 | EC50 (CDK12–cyclin K and DDB1; in vitro complex formation, 50 nM CDK12–cyclin K, 100 nM DDB1, text and figures, read-out: TR-FRET EC50): 12 ± 0.4 nM | EC50 (CDK12–cyclin K and DDB1; sheet MOESM7, read-out: log TR-FRET EC50 (converted)): 12 nM | EC50 (CDK12–cyclin K and DDB1; source data sheet correlations, read-out: TR-FRET EC50): 12 nM | reporter assay signal (normalized) ([1]; 2 nM): 0.9561 and 0.9287 | reporter assay signal (normalized) ([1]; 3 nM): 0.9797 and 0.9734 | reporter assay signal (normalized) ([1]; 4.5 nM): 0.9145 and 0.9397 | reporter assay signal (normalized) ([1]; 7.68 nM): 0.9019 and 0.9312 | reporter assay signal (normalized) ([1]; 22.8 nM): 0.769 and 0.8233 | reporter assay signal (normalized) ([1]; 34.2 nM): 0.7674 and 0.787 | reporter assay signal (normalized) ([1]; 51.3 nM): 0.6849 and 0.771 | reporter assay signal (normalized) ([1]; 77 nM): 0.6566 and 0.7136 | reporter assay signal (normalized) ([1]; 260 nM): 0.6047 and 0.6647 | reporter assay signal (normalized) ([1]; 390 nM): 0.6094 and 0.6714 | reporter assay signal (normalized) ([1]; 585 nM): 0.6094 and 0.6655 | reporter assay signal (normalized) ([1]; 877 nM): 0.6086 and 0.6352 | reporter assay signal (normalized) ([1]; 1970 nM): 0.5992 and 0.6495 | reporter assay signal (normalized) ([1]; 2960 nM): 0.552 and 0.6731 | reporter assay signal (normalized) ([1]; 4440 nM): 0.5937 and 0.62 | reporter assay signal (normalized) ([1]; 6670 nM): 0.5457 and 0.6014 | reporter assay signal (normalized) ([1]; 10000 nM): 0.5701 and 0.6031 | cyclin K reporter degradation, result in words ([1]; HEK293T): potent degraders | DC50 ([1]; source data sheet correlations, read-out: DC50): 26 nM | Lanthascreen signal, sheet CDK2 (CDK2–cyclin A; Compound 0.038147 nM, raw replicates, experiment r48-r58): 0.01114 and 0.01116 | Lanthascreen signal, sheet CDK2 (CDK2–cyclin A; Compound 0.038147 nM, raw replicates, experiment r72-r82): 0.02274 and 0.02249 and 0.02111 | Lanthascreen signal, sheet CDK2 (CDK2–cyclin A; Compound 0.152588 nM, raw replicates, experiment r48-r58): 0.01418 and 0.01279 | Lanthascreen signal, sheet CDK2 (CDK2–cyclin A; Compound 0.152588 nM, raw replicates, experiment r72-r82): 0.0215 and 0.0211 and 0.01988 | Lanthascreen signal, sheet CDK2 (CDK2–cyclin A; Compound 0.610352 nM, raw replicates, experiment r48-r58): 0.01088 and 0.01046 | Lanthascreen signal, sheet CDK2 (CDK2–cyclin A; Compound 0.610352 nM, raw replicates, experiment r72-r82): 0.01525 and 0.01498 and 0.01532 | Lanthascreen signal, sheet CDK2 (CDK2–cyclin A; Compound 1.02544 nM, raw replicates, experiment r1-r11): 0.008805 and 0.007055 | Lanthascreen signal, sheet CDK2 (CDK2–cyclin A; Compound 3.15521 nM, raw replicates, experiment r1-r11): 0.006794 and 0.006701 | Lanthascreen signal, sheet CDK2 (CDK2–cyclin A; Compound 4.57247 nM, experiment r25-r34): 0.009774 | Lanthascreen signal, sheet CDK2 (CDK2–cyclin A; Compound 9.46563 nM, raw replicates, experiment r1-r11): 0.005367 and 0.004658 | Lanthascreen signal, sheet CDK2 (CDK2–cyclin A; Compound 9.76563 nM, raw replicates, experiment r48-r58): 0.004922 and 0.004545 | Lanthascreen signal, sheet CDK2 (CDK2–cyclin A; Compound 9.76563 nM, raw replicates, experiment r72-r82): 0.008551 and 0.007922 and 0.008628 | Lanthascreen signal, sheet CDK2 (CDK2–cyclin A; Compound 13.7174 nM, experiment r25-r34): 0.006843 | Lanthascreen signal, sheet CDK2 (CDK2–cyclin A; Compound 31.5521 nM, raw replicates, experiment r1-r11): 0.003961 and 0.003619 | Lanthascreen signal, sheet CDK2 (CDK2–cyclin A; Compound 39.0625 nM, raw replicates, experiment r48-r58): 0.004317 and 0.004069 | Lanthascreen signal, sheet CDK2 (CDK2–cyclin A; Compound 39.0625 nM, raw replicates, experiment r72-r82): 0.008233 and 0.00742 and 0.007049 | Lanthascreen signal, sheet CDK2 (CDK2–cyclin A; Compound 41.1523 nM, experiment r25-r34): 0.005858 | Lanthascreen signal, sheet CDK2 (CDK2–cyclin A; Compound 99.3891 nM, raw replicates, experiment r1-r11): 0.003218 and 0.002962 | Lanthascreen signal, sheet CDK2 (CDK2–cyclin A; Compound 123.457 nM, experiment r25-r34): 0.005407 | Lanthascreen signal, sheet CDK2 (CDK2–cyclin A; Compound 156.25 nM, raw replicates, experiment r48-r58): 0.004055 and 0.004446 | Lanthascreen signal, sheet CDK2 (CDK2–cyclin A; Compound 156.25 nM, raw replicates, experiment r72-r82): 0.007121 and 0.006977 and 0.007061 | Lanthascreen signal, sheet CDK2 (CDK2–cyclin A; Compound 315.521 nM, raw replicates, experiment r1-r11): 0.003513 and 0.004201 | Lanthascreen signal, sheet CDK2 (CDK2–cyclin A; Compound 370.37 nM, experiment r25-r34): 0.005303 | Lanthascreen signal, sheet CDK2 (CDK2–cyclin A; Compound 625 nM, raw replicates, experiment r48-r58): 0.004058 and 0.004497 | Lanthascreen signal, sheet CDK2 (CDK2–cyclin A; Compound 625 nM, raw replicates, experiment r72-r82): 0.007299 and 0.007212 and 0.007465 | Lanthascreen signal, sheet CDK2 (CDK2–cyclin A; Compound 2500 nM, raw replicates, experiment r48-r58): 0.004147 and 0.004489 | Lanthascreen signal, sheet CDK2 (CDK2–cyclin A; Compound 2500 nM, raw replicates, experiment r72-r82): 0.007107 and 0.006983 and 0.006617 | Lanthascreen signal, sheet CDK2 (CDK2–cyclin A; Compound 3155.21 nM, raw replicates, experiment r1-r11): 0.004846 and 0.003852 | Lanthascreen signal, sheet CDK2 (CDK2–cyclin A; Compound 3333.33 nM, experiment r25-r34): 0.004706 | Lanthascreen signal, sheet CDK2 (CDK2–cyclin A; Compound 10000 nM, experiment r25-r34): 0.005121 | Lanthascreen signal, sheet CDK2 (CDK2–cyclin A; Compound 10000 nM, raw replicates, experiment r48-r58): 0.003844 and 0.004325 | Lanthascreen signal, sheet CDK2 (CDK2–cyclin A; Compound 10000 nM, raw replicates, experiment r72-r82): 0.007331 and 0.007604 and 0.008348 | Lanthascreen signal, sheet CDK2 (CDK2–cyclin A; Compound 10002 nM, raw replicates, experiment r1-r11): 0.002963 and 0.004615 | IC50 (CDK2–cyclin A; Supplementary Table 2, read-out: Lanthascreen IC50 [nM] CDK2): 3 nM

— article PMC10746543, “Design principles for cyclin K molecular glue degraders” (Nature Chemical Biology, 2023)
